Source: patent US20030077768A1, “Use of xylene monooxygenase for the oxidation of substituted polycyclic aromatic compounds” (priority 2001, published 2003)

Experiments:
Sphingomonas strain ASU1 = assay: Carbon source utilization (growth on S12 agar) by strain ASU1; type: cell-based; settings: compound as sole source of carbon and energy, 28° C., listed as 2,6-DMN
Experimental: S12 agar was used to isolate bacteria from liquid enrichment cultures that grow on 2,6-DMN and to test isolates for growth with various sources of carbon and energy. S12 agar was prepared by adding 1.5% Noble agar (DIFCO) to S12 medium.
Since 2,6-DMN has low aqueous solubility, bacteria growing in S12 medium were supplied with 2,6-DMN by adding a few flakes of the compound directly to the culture. Bacteria growing on S12 agar were supplied with naphthalene, 2-methylnapthalene or 2,6-DMN by placing a few flakes of the compound on the interior of the petri dish lid. All petri dishes were sealed with parafilm and incubated with the lid on the bottom.
Bacteria that grow on 2,6-DMN were isolated from an enrichment culture. The enrichment culture was established by inoculating 0.1 mL of activated sludge into 10 mL of S12 medium in a 125 mL screw cap Erlenmeyer flask. The activated sludge was obtained from a DuPont wastewater treatment facility. The enrichment culture was supplemented with adding yeast extract (0.001% final concentration) by adding a few flakes of 2,6-DMN directly to the culture medium. The enrichment culture was incubated at 28° C. with reciprocal shaking. The culture was diluted every 4 to 7 d by replacing 9 mL of the culture with the same volume of S12 medium with 0.001% yeast extract and a few additional flakes of 2,6-DMN. […]

[1] = Aqueous solubility (statement); type: physicochemical
[2] = system: ASU1 xylene monooxygenase; assay: Oxidation of 2,6-DMN by Escherichia coli recombinant with cloned ASU1 xylene monooxygenase genes (Clone 4a); type: cell-based, Sphingomonas strain ASU1; settings: E. coli Clone 4a; M9 medium; 24 mg 2,6-DMN in FC-75 carrier phase; 37° C.; HPLC and GC/MS; metabolites 6-M-2-HMN, 6-M-2-NA, 2,6-NDC
Experimental: (§1) HPLC system used was a Hewlett Packard 1100 series with a photo diode array detector and LC/MSD-ESI Negative ion. Column used was Hewlett Packard part #880975-902 Zorbax® SB-C18 (4.6×12.5 mm, 5 micron), purchased from Agilient Technologies (Foster City, Calif.). The column temperature was controlled at 30° C. Mobile phase was […] ammonium acetate [20 mL 1 M ammonium acetate in 1800 mL water (solvent-2=S-2)] and acetonitrile (Solvent-1=S-1). The gradient used was 0-3 min 10% S-1 and 90% S-2, gradient was increased to 100% S-1 in 33 min, and again reduced to 10% S-1 and 90% S-2 in 3 min. Flow rate used for the mobile phase was 0.9 mL/min. 100 μL samples were injected, 230 nm wavelength was used for detection of the intermediates of 2,6-dimethylnaphthalene. Intermediates were prepared by as follows, as intermediates needed were not available in the market. Intermediates prepared were 6-methyl-2-napthoic acid, 6-methyl-2-hydroxymethylnaphthalene, and 2,6-Bis(hydroxymethyl)naphthalene. The retention time and diode array scans of the intermediates matched with the prepared standards. The mass spectrometer fragmentation pattern of the 6-methyl-2-napthoic acid in the sample matched that of the standards prepared.
(§2) GC/MS was also used to analyze the samples. […]
(§3) The conversion of 2,6-DMN to 2,6-NDC was monitored by reverse phase HPLC. […]

[3] = target: T1, pWWO xylene monooxygenase (Pseudomonas putida, UniProt P21395); assay: Oxidation of 2,6-DMN by Escherichia coli recombinant with cloned pWWO xylene monooxygenase genes (Clone 6f); type: cell-based; settings: E. coli Clone 6f; M9 medium; 24 mg 2,6-DMN in FC-75 carrier phase; 37° C.; HPLC and GC/MS; metabolites 6-M-2-HMN, 6-M-2-NA, 2,6-HMN
T1 construct: A fragment of pWWO DNA that contained xylM and xylA was cloned into a small, multicopy plasmid; expressed in transfected cells; host or cells: Escherichia coli TOP10 carrying pCR2.1-TOPO with the 2.4 kb pWWO xylM-xylA PCR fragment from strain ATCC 33015 (Clone 6f)
Experimental: as §1, §2, §3

T1 sequence (P21395 whole entry, the tested form may be a part): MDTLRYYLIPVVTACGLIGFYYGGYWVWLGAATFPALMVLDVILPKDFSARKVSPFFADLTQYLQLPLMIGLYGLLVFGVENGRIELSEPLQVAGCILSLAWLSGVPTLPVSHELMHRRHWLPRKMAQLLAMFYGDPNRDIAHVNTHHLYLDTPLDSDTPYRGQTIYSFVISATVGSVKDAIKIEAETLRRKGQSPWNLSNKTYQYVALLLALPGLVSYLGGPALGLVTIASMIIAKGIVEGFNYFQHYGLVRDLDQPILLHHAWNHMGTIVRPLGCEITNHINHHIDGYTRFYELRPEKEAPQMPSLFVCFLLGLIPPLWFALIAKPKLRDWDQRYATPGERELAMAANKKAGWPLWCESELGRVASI

Compound: Cc1ccc2cc(C)ccc2c1 [2,6-dimethylnaphthalene, 2,6-Dimethylnaphthalene]
- Growth on Carbon Source (Sphingomonas strain ASU1): able to grow
- aqueous solubility [1]: low
- Substrate for the ASU1 xylene monooxygenase (oxidation by Clone 4a) [2]: substrate
- Substrate for the pWWO xylene monooxygenase (oxidation by Clone 6f) [3]: substrate
